Measurements: ChEMBL document CHEMBL4196011, “The lead optimization of the polyamine conjugate of flavonoid with a naphthalene motif: Synthesis and biological evaluation” (Eur J Med Chem, 2018)
Calls of active or inactive are those of the source. The calls are words filed in the database; no cut-off is given here.

Legend:
[1] = tested on: HepG2; test: Induction of apoptosis in human HepG2 cells assessed as disruption of mitochondrial membrane potential after 48 hrs by Rh123 staining-based fluorescence quenching analysis; type: functional, cell-based
[2] = tested on: H22; test: Antitumor activity against […] xenografted in Kunming mouse assessed as tumor growth inhibition at 40 mg/kg, iv for 7 consecutive days measured on day 16; type: functional; conditions: 384 h, read-out: TGI
[3] = tested on: HepG2; test: Induction of apoptosis in human HepG2 cells assessed as late apoptotic cells at 5 uM after 8 hrs by Annexin V-FITC/propidium iodide staining-based flow cytometry (reference value: 0.88%); type: functional
[4] = tested on: HepG2; test: Induction of apoptosis in human HepG2 cells assessed as necrotic cells at 5 uM after 8 hrs by Annexin V-FITC/propidium iodide staining-based flow cytometry (reference value: 0.40%); type: functional
[5] = tested on: HepG2; test: Induction of apoptosis in human HepG2 cells assessed as early apoptotic cells at 2.5 uM after 24 hrs by Annexin V-FITC/propidium iodide staining-based flow cytometry (reference value: 2.07%); type: functional
[6] = tested on: HepG2; test: Induction of apoptosis in human HepG2 cells assessed as viable cells at 2.5 uM after 24 hrs by Annexin V-FITC/propidium iodide staining-based flow cytometry (reference value: 96.97%); type: functional; conditions: HepG2, 24 h, read-out: Activity
[7] = tested on: HepG2; test: Induction of apoptosis in human HepG2 cells assessed as early apoptotic cells at 5 uM after 24 hrs by Annexin V-FITC/propidium iodide staining-based flow cytometry (reference value: 2.07%); type: functional
[8] = tested on: HepG2; test: Induction of apoptosis in human HepG2 cells assessed as late apoptotic cells at 5 uM after 24 hrs by Annexin V-FITC/propidium iodide staining-based flow cytometry (reference value: 0.88%); type: functional
[9] = tested on: HepG2; test: Induction of apoptosis in human HepG2 cells assessed as viable cells at 5 uM after 24 hrs by Annexin V-FITC/propidium iodide staining-based flow cytometry (reference value: 96.97%); type: functional; conditions: HepG2, 24 h, read-out: Activity
[10] = tested on: HepG2; test: Induction of apoptosis in human HepG2 cells assessed as late apoptotic cells at 7.5 uM after 36 hrs by Annexin V-FITC/propidium iodide staining-based flow cytometry (reference value: 1.08%); type: functional
[11] = tested on: HepG2; test: Induction of apoptosis in human HepG2 cells assessed as necrotic cells at 2.5 uM after 48 hrs by Annexin V-FITC/propidium iodide staining-based flow cytometry (reference value: 0.08%); type: functional
[12] = tested on: HepG2; test: Induction of apoptosis in human HepG2 cells assessed as early apoptotic cells at 5 uM after 48 hrs by Annexin V-FITC/propidium iodide staining-based flow cytometry (reference value: 1.30%); type: functional
[13] = tested on: HepG2; test: Induction of apoptosis in human HepG2 cells assessed as viable cells at 5 uM after 48 hrs by Annexin V-FITC/propidium iodide staining-based flow cytometry (reference value: 96.67%); type: functional; conditions: HepG2, 48 h, read-out: Activity
[14] = tested on: HepG2; test: Induction of apoptosis in human HepG2 cells assessed as decrease in nuclear volume after 48 hrs by Hoechst 33342 staining-based assay; type: functional, cell-based
[15] = tested on: HepG2; test: Induction of apoptosis in human HepG2 cells assessed as increase in p53 protein expression after 48 hrs by immunofluorescence staining-based high content screening assay; type: functional, cell-based
[16] = tested on: HepG2; test: Induction of autophagy in human HepG2 cells assessed as formation of autolysosomes at 2.5 to 7.5 uM preincubated cells with 3-MA for 2 hrs followed by compound addition measured after 48 hrs by MDC staining-based assay; type: functional, cell-based

COc1ccc2cc(-c3oc4c(CNCCCCN)cccc4c(=O)c3OC)ccc2c1Br.Cl.Cl
Activity [1]: Dose-dependent effect | inhibition in vivo at 40 mg/kg [2]: 69.1% | Activity [3]: 1.91% | Activity [4]: 0.03% | Activity [5]: 10.46% | viability at 2.5 µM [6]: 88.7% | Activity [7]: 15.76% | Activity [8]: 2.03% | viability at 5 µM [9]: 82.2% | Activity [10]: 6.3% | Activity [11]: 0.29% | Activity [12]: 26.36% | viability at 5 µM [13]: 60.4% | Activity [14]: Dose-dependent effect | Activity [15]: Dose-dependent effect | Activity [16]: inactive
